The values below come from patent US4221800A, “Cycloalkenochromone” (Miles Laboratories, Inc., priority 1977, dated 1980).

SMILES strings stand for the structures.

One assay has as its system mast cells. The experiment in a line: inhibition of mast cell degranulation (spasmogen release) induced by phospholipase A. The assay is classed as cell-based, rat. Conditions: for Relative Potency (in relation to disodium cromoglycate): IC20 relative to disodium cromoglycate, rat mast cells; for IC20: Mast cell, rat peritoneal mast cells, 37° C., ten minutes, read-out: IC20 (inhibition of mast cell degranulation by 20%). As for the experimental part: The anti-allergic activity was determined by measuring the inhibition of allergic release of spasmogens from mast cells, using the method of Taylor et al., as described in Int. Arch. Allergy, 46, 104(1974).
The inhibition of spasmogen release from mast cells involved obtaining pools of mast cells from normal rats. For each experiment involving pools of mast cells, 10 or more rats were killed by decapitation. The peritoneal fluid from the animals was pooled and the pool dispensed into small polyethylene tubes […] containing 25 μl of a degranulating agent phospholipase A (PL-A), and 25 μl of the drug to be tested. Each treatment was repeated in at least four tubes. All the tubes were incubated at 37° C. for ten minutes. The mast cells were fixed and stained by addition of 50 μl/tube of 2.5% toluidine blue made up in 25% acetic acid. The proportion of mast cells undergoing degranulation was assessed by counting under the microscope. At least 25 mast cells were counted from each tube. The percentage inhibition of degranulation resulting from each treatment was calculated using the formula 100[1-(x-z)/(y-z)], where `x` represents the mean percentage of cells undergoing degranulation in the tubes treated with PL-A and drug, `y` represents the mean percentage of cells undergoing degranulation in the tubes treated with PL-A only, and "z" represents the mean percentage of cells undergoing degranulation in the PL-A-negative tubes.
[See Nature, Vo. 223, 197 (1969)].

The test system of assay [1] is allergic release of spasmogens in immediate hypersensitivity reactions. Particulars: immediate hypersensitivity reactions in several animals; Nature 223, 197 (1969); cited from earlier work.
Assay [2] relates to allergen-induced bronchoconstriction. Conditions: asthmatics; reference compound; cited from earlier work.

As usually defined, the IC20 is the concentration at which the effect reaches the 20% level. Regarding `O=C(O)c1ccc2oc3c(c(=O)c2c1)CC(OCc1ccccc1)CC3` (centres unmarked) [Example 15, 6-Carboxy-2,3-(4'-benzyloxycyclohexeno)chromone], in the assay with mast cells, the “Relative Potency (in relation to disodium cromoglycate)” value (from here on “Relative Potency”) is recorded as 1.5 and the IC20 is 4300 nM.
With `COC1CCc2oc3ccc(C(=O)O)cc3c(=O)c2C1` (centres unmarked) [Example 21, 6-Carboxy-2,3-(4'-methoxycyclohexeno)chromone], in the assay with mast cells, the “Relative Potency” value is listed as 3.6 and the IC20 amounted to 1800 nM.
Turning to `CC1(c2ccccc2)CCc2oc3ccc(-c4nn[nH]n4)cc3c(=O)c2C1` (centres unmarked) [Example 31, 6-(5-(1H)-tetrazolyl)-2,3-(4'-methyl-4'-phenylcyclohexeno)chromone], in the assay on mast cells, the “Relative Potency” value was 4.3 and the IC20 came to 1500 nM.
Consider `CCC1CCc2sc3ccc(-c4nn[nH]n4)cc3c(=O)c2C1` (centres unmarked) [Example 35, 6-(5-(1H)-tetrazolyl)-2,3-(4'-ethylcyclohexeno)thiochromone], for which, in the assay with mast cells, the “Relative Potency” value is recorded as 18,1 and the IC20 stood at 360 nM.
Turning to `CS(=O)(=O)c1ccc2oc3c(c(=O)c2c1)CC(C(=O)O)CC3` (centres unmarked) [Example 20, 6-Methylsulfonyl-2,3-(4'-carboxycyclohexeno)chromone], in the assay on mast cells, the “Relative Potency” value is reported as 3.4 and the IC20 came out at 1900 nM.
For `O=C(O)c1ccc2oc3c(c(=O)c2c1)CCCC3` [Example 1, 6-Carboxy-2,3-cyclohexenochromone] the same measures were 3.1 and 2100 nM.
For `O=C(O)c1ccc2c(=O)c3c(oc2c1)CCCC3` [Example 24, 7-Carboxy-2,3-cyclohexenochromone] the same measures were 3.1 and 2100 nM.
As for `O=c1c2c(oc3cc(-c4nn[nH]n4)ccc13)CCCC2` [Example 25, 7(5-(1H)-tetrazolyl)-2,3-cyclohexenochromone], in the assay with mast cells, the “Relative Potency” value stood at 7.2 and the IC20 was determined as 900 nM.
`CSc1ccc2oc3c(c(=O)c2c1)CC(C(=O)O)CC3` (centres unmarked) [Example 18, 6-Methylthio-2,3-(4'-carboxycyclohexeno)chromone]: in the assay on mast cells, the “Relative Potency” value came out at 5.0 and the IC20 was 1300 nM.
For `CC1CCc2oc3ccc(C(=O)O)cc3c(=O)c2C1` (centres unmarked) [Example 3, 6-Carboxy-2,3-(4'-methylcyclohexeno)chromone] the same measures were 1.0 and 6500 nM.
Take `O=C(O)c1ccc2oc3c(c(=O)c2c1)CC(C(=O)O)CC3` (centres unmarked) [Example 7, 6-Carboxy-2,3-(4'-carboxycyclohexeno)chromone]: in the assay with mast cells, the “Relative Potency” value is 1.0 and the IC20 is 6500 nM.
`CCC1CCC2=C(C1)C(=O)c1cc(C(=O)O)ccc1S2(=O)=O` (centres unmarked) [Example 32, 6-Carboxy-2,3-(4'-ethylcyclohexeno)thiochromone-1,1-dioxide]: in the assay on mast cells, the “Relative Potency” value came to 10.8 and the IC20 is 600 nM.
For `CCC1CCc2oc3ccc(-c4nn[nH]n4)cc3c(=O)c2C1` (centres unmarked) [Example 6, Sodium 6-(5-(1H)-tetrazolyl)-2,3-(4'-ethylcyclohexeno)chromone] the same measures were 6.5 and 1000 nM.
With `CCC1CCc2oc3cc(-c4nn[nH]n4)ccc3c(=O)c2C1` (centres unmarked) [Example 27, 7-(5-(1H)-tetrazolyl)-2,3-(4'-ethylcyclohexeno)chromone], in the assay with mast cells, the “Relative Potency” value is reported as over 13.0 and the IC20 was under 600 nM.
For `CCC1CCc2sc3ccc(C(=O)O)cc3c(=O)c2C1` (centres unmarked) [Example 33, 6-Carboxy-2,3-(4'-ethylcyclohexeno)thiochromone] the same measures were 1.41 and 4600 nM.
For `CCC1CCc2oc3cc(C(=O)O)ccc3c(=O)c2C1` (centres unmarked) [Example 26, 7-Carboxy-2,3-(4'-ethylcyclohexeno)chromone] the same measures were over 13.0 and under 600 nM.
For the compound `O=C(O)c1cc(=O)c2c(OCC(O)COc3cccc4oc(C(=O)O)cc(=O)c34)cccc2o1` [disodium cromogylcate], the “inhibition of allergic release of spasmogens (in words)” value in assay [1] is recorded as “specifically inhibit the allergic release of spasmogens in immediate hypersensitivity reactions in several animals”. The “inhibition of experimental allergen-induced bronchoconstriction (in words)” value in assay [2] is given as “effective inhibitor of experimental allergen-induced bronchoconstriction in asthmatics”.
In the case of `CCOC(=O)C1CCc2oc3ccc(-c4nn[nH]n4)cc3c(=O)c2C1` (centres unmarked) [Example 8, 6-(5-(1H)-tetrazolyl)-2,3-(4'-ethoxycarbonylcyclohexeno)chromone], in the assay on mast cells, the “Relative Potency” value is recorded as 1.6 and the IC20 turned out to be 4200 nM.
`O=c1c2c(oc3ccc(-c4nn[nH]n4)cc13)CCCCCC2` [Example 13, 6-(5-(1H)-tetrazolyl)-2,3-cyclooctenochromone]: in the assay on mast cells, the “Relative Potency” value is 5.0 and the IC20 turned out to be 1300 nM.
For `O=c1c2c(oc3ccc(-c4nn[nH]n4)cc13)CCCC2` [Example 2, 6-(5-(1H)-tetrazolyl)-2,3-cyclohexenochromone] the same measures were 3.8 and 1700 nM.
Take `CC1CCc2oc3ccc(-c4nn[nH]n4)cc3c(=O)c2C1` (centres unmarked) [Example 4, 6-(5-(1H)-tetrazolyl)-2,3-(4'-methylcyclohexeno)chromone]: in the assay on mast cells, the “Relative Potency” value was 1.4 and the IC20 worked out at 4500 nM.
On to `CCC1CCc2oc3ccc(C(=O)O)cc3c(=O)c2C1` (centres unmarked) [Example 5, Sodium-6-carboxy-2,3-(4'-ethylcyclohexeno)chromone], for which, in the assay with mast cells, the “Relative Potency” value worked out at 11.2 and the IC20 worked out at 580 nM.
